For 10 compounds, EC50 and CC50 results are on record in patent US20190375708A1 (VenatoRx Pharmaceuticals, Inc., priority 2018, published 2019).

In data set [1] the test system is HBV replication in HepAD38 cells. In words: Anti-HBV replication assay in HepAD38 cells (QPCR of extracellular HBV DNA). It is filed as cell-based, HBV (genotype D, serotype ayw). The following applies: Hepatitis B virus, 168 h, 7 days incubation, extracellular HBV DNA by QPCR, read-out: Anti-HBV EC50. The essentials: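 HepAD38 cells (HepG2 carrying tet-repressible HBV genotype D genome) induced by tetracycline withdrawal, treated 7 days at 37 °C with compound ([…], 1-log10 dilutions). Extracellular HBV DNA quantified by QPCR against a standard curve, normalised to DMSO; EC50 from 4-parameter fit.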

A short description of data set [2]: In vitro cytotoxicity assay (MTT cell viability) in HepG2 cells. The following applies: human. Format: cell-based, human. In outline: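 Using MTT conversion as the viability measure, HepG2 cells were incubated with compounds for 7 days (30 μM to 1.0 nM). Absorbance at 492 nm was normalized to vehicle and fitted to give CC50.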

pEC50: −log10 of the molar value.

The term pEC50 denotes −log10 of the EC50, conventionally taken in molar units. In general, CC50 refers to the concentration giving 50% cytotoxicity. Low values mean greater toxicity to the cells, high ones lower toxicity to the cells. As for `Cc1cc(NC(=O)c2c(C)c(C(=O)C(=O)Nc3cccc(B(O)O)c3)n(C)c2C)ccc1F` [Example 254, (3-(2-(4-((4-fluoro-3-methylphenyl)carbamoyl)-1,3,5-trimethyl-1H-pyrrol-2-yl)-2-oxoacetamido)phenyl)boronic acid], in data set [1], the negative-log EC50 (pEC50) was more than 7.30. In data set [2], this compound came in with a CC50 at 7 days of 5000 to 30000 nM.
Take `Cc1cc(NC(=O)c2c(C)c(C(=O)C(=O)N[C@H]3CC[C@H](O)CC3)n(CCF)c2C)ccc1F` [Example 198, N-(4-fluoro-3-methylphenyl)-1-(2-fluoroethyl)-5-(2-(((1r,4r)-4-hydroxycyclohexyl)amino)-2-oxoacetyl)-2,4-dimethyl-1H-pyrrole-3-carboxamide]: the negative-log EC50 (pEC50) in data set [1] is 6.30 to 7.30. The same compound gave a cytotoxic concentration (CC50) at 7 days in data set [2] of more than 30000 nM.
For `Cc1c(C(=O)Nc2cccc(C(F)F)c2)c(C)n(C)c1C(=O)C(=O)N[C@]1(C)C[C@H](O)C1` [Example 705, N-(3-(difluoromethyl)phenyl)-5-(2-(((1s,3s)-3-hydroxy-1-methylcyclobutyl)amino)-2-oxoacetyl)-1,2,4-trimethyl-1H-pyrrole-3-carboxamide], in that order: more than 7.30 and more than 30000 nM.
Consider `CNC(=O)[C@H](NC(=O)C(=O)c1c(C)c(C(=O)Nc2ccc(F)c(C)c2)c(C)n1C)C(C)C` [Example 106, (R)-N-(4-fluoro-3-methylphenyl)-1,2,4-trimethyl-5-(2-((3-methyl-1-(methylamino)-1-oxobutan-2-yl)amino)-2-oxoacetyl)-1H-pyrrole-3-carboxamide], for which the negative-log EC50 (pEC50) in data set [1] was more than 7.30. The same compound returned a CC50 at 7 days in data set [2] of 500 to 4990 nM.
In the case of `Cc1cc(NC(=O)c2c(C)c(C(=O)C(=O)N[C@H](CO)C(C)(C)C)n(C)c2C)ccc1F` [Example 67, (S)—N-(4-fluoro-3-methylphenyl)-5-(2-((1-hydroxy-3,3-dimethylbutan-2-yl)amino)-2-oxoacetyl)-1,2,4-trimethyl-1H-pyrrole-3-carboxamide], the negative-log EC50 (pEC50) in data set [1] is more than 7.30. Besides, the half-maximal cytotoxic concentration (CC50) at 7 days in data set [2] is more than 30000 nM.
For `Cc1cc(NC(=O)c2c(Cl)c(C(=O)C(=O)NC(C)(C)C)n3c2CCC3)ccc1F` [Example 539, 5-(2-(tert-butylamino)-2-oxoacetyl)-6-chloro-N-(4-fluoro-3-methylphenyl)-2,3-dihydro-1H-pyrrolizine-7-carboxamide], the negative-log EC50 (pEC50) in data set [1] was more than 7.30. The CC50 at 7 days in data set [2] lay in the range of 5000 to 30000 nM.
For `Cc1cc(NC(=O)c2c(C)c(C(=O)C(=O)NC3(c4noc(C(F)F)n4)CCC3)n(C)c2C)ccc1F` [Example 153, 5-(2-((1-(5-(difluoromethyl)-1,2,4-oxadiazol-3-yl)cyclobutyl)amino)-2-oxoacetyl)-N-(4-fluoro-3-methylphenyl)-1,2,4-trimethyl-1H-pyrrole-3-carboxamide], the pEC50 in data set [1] is more than 7.30. The compound further registered a CC50 at 7 days in data set [2] of 5000 to 30000 nM.
On the same counts, the results for `Cc1cc(NC(=O)c2cc(C(=O)C(=O)NC(C)(C)CO)n3c2CCC3)ccc1F` [Example 537, N-(4-fluoro-3-methylphenyl)-5-(2-((1-hydroxy-2-methylpropan-2-yl)amino)-2-oxoacetyl)-2,3-dihydro-1H-pyrrolizine-7-carboxamide] are 6.30 to 7.30 and more than 30000 nM.
For `Cc1cnc(C(C)(C)NC(=O)C(=O)c2c(C)c(C(=O)Nc3ccc(F)c(C)c3)c(C)n2C)s1` [Example 84, N-(4-fluoro-3-methylphenyl)-1,2,4-trimethyl-5-(2-((2-(5-methylthiazol-2-yl)propan-2-yl)amino)-2-oxoacetyl)-1H-pyrrole-3-carboxamide], the pEC50 in data set [1] is more than 7.30. This compound also displayed a CC50 at 7 days in data set [2] of more than 30000 nM.
On the same counts, the results for `Cc1cc(NC(=O)c2cc(C(=O)C(=O)NC3(CO)CC(F)(F)C3)n3c2CCCC3)ccc1F` [Example 432, 3-(2-((3,3-difluoro-1-(hydroxymethyl)cyclobutyl)amino)-2-oxoacetyl)-N-(4-fluoro-3-methylphenyl)-5,6,7,8-tetrahydroindolizine-1-carboxamide] are 6.30 to 7.30 and more than 30000 nM.
